Results taken from patent US9849127B2, “Means and methods for treating cancer” (Medizinische Hochschule Hannover, priority 2013, dated 2017).

Legend:
[1] = system: IDH1wt cells; experiment: Alamar blue cell viability assay, IDH1wt cells; assay type: cell-based; details: IDH1wt cells in vitro, treated for 72 hours
Experimental: (§1) FIG. 1: IC50 values for IDH1wt and IDH1mut treated with compound HMS-101 for 72 hours.

[2] = system: R-2-hydroxyglutarate (R-2HG); experiment: Ratio R-2HG/S-2HG in serum of treated mice; assay type: in vivo; details: treated mice versus PBS, 9 weeks after treatment, pooled serum
Text: FIG. 6: Ratio of R-2-hydroxyglutarate (R-2HG) to S-2-hydroxyglutarate (S-2HG) in serum from mice treated with HMS-101 or solvent control (PBS) at 9 weeks after treatment. Serum from 3 mice were pooled per indicated measurement (9 mice for PBS, 12 mice for HMS-101).
2-hydroxyglutarate (R-2HG), in particular elevated values thereof, typically measured in terms of the ratio between R- and S-form (R-2HG/S-2HG) is a marker for leukemia in accordance with the present invention. […] This establishes both the usefulness of the mentioned ratio as a marker for leukemia and the beneficial effects of HMS-101.

[3] = system: IDH1mut cancer cells; experiment: Alamar blue cell viability assay, IDH1mut cells; assay type: cell-based
Experimental: as §1

[4] = system: primary human AML cells harboring the IDH1 mutation; experiment: Colony forming assay of primary human AML cells; assay type: cell-based; details: IDH1-mutated primary human AML cells compared to AML cells with wildtype IDH1 and CD34+ cells from healthy donors
Text: FIG. 3: Colony forming assay of primary human AML cells with and without IDH1 mutation treated with solvent control (DMSO) or compound HMS-101. Human CD34^+ hematopoietic stem and progenitor cells from healthy donors were used as controls.

[5] = system: primary human AML cells harboring the IDH1 mutation; experiment: Rate of apoptosis of primary human AML cells; assay type: cell-based; details: IDH1-mutated primary human AML cells compared to AML cells with wildtype IDH1 and CD34+ cells from healthy donors
Text: FIG. 4: Rate of apoptosis of primary human AML cells with and without IDH1 mutation treated with solvent control (DMSO) or compound HMS-101. Human CD34^+ hematopoietic stem and progenitor cells from healthy donors were used as controls.

[6] = system: HoxA9 immortalized bone marrow cells expressing IDH1R132C; experiment: Survival of mice transplanted with HoxA9 immortalized IDH1R132C bone marrow cells; assay type: in vivo; details: 1 mg/mouse 5 days/week starting 5 days after transplantation, versus PBS; follow-up ongoing
Experimental: FIG. 5: Survival of mice treated with HMS-101.
HoxA9 immortalized bone marrow cells from C57BL/6J mice were transduced with retroviral vectors expressing IDH1R132C and GFP. One million GFP-expressing sorted cells were injected intravenously in lethally-irradiated syngeneic recipient mice, accompanied by a life-sparing dose of 1×10^5 freshly isolated bone marrow cells from syngeneic mice. One cohort of mice was treated with HMS-101 at a dose of 1 mg/mouse for 5 days/week starting 5 days after transplantation. The control cohort was treated with PBS for 5 days/week starting 5 days after transplantation. The solid line represents the survival of PBS-treated mice, the dotted line represents the survival of HMS-101-treated mice. Follow-up and treatment are ongoing.

[7] = system: IDH1 mutant enzyme; experiment: Intracellular 2HG levels in IDH1mutant cells (neomorphic activity); assay type: cell-based; details: 72 hours, 10 μM, versus control treated cells
Text: FIG. 2: D-2HG levels from IDH1mut cells treated with compound HMS-101 (drug) or solvent control.

[8] = Toxicity testing in animals; assay type: in vivo; details: mice, 1 mg intraperitoneally daily for two weeks
Experimental: The compound described herein has been given to mice at a dose of 1 mg intraperitoneally daily for two weeks.

CN1CCN(C)[C@H](CCN2CC[C@H](c3ccc(F)cc3)C2)C1 [HMS-101]
IC50 [1]: 12 µM
ratio R-2HG/S-2HG in serum [2]: decrease of the ratio R-2HG/S-2HG
IC50 on IDH1wt cells relative to IDH1mut cells ([3]; 72 hours): 12 times
IC50 ([3]; IDH1mut cancer cells in vitro, treated for 72 hours): 1 µM
colony forming potential [4]: reduced the colony forming potential
rate of apoptosis [5]: increased the rate of apoptosis
survival [6]: survival benefit
intracellular 2HG levels (D-2HG) [7]: dramatically reduced
tolerability / visible signs of toxicity [8]: well tolerated by the animals with no visible signs of toxicity
